Where two headings read alike, the source gives them in different places. A value given as a limit tells only on which side of the number the result lay.

By EC50 is commonly meant the concentration that produces a half-maximal response.

Format in all cases: cell-based
In one experiment the target is T1, Y1R (Homo sapiens, UniProt P25929).
T1 sequence (P25929 1-384): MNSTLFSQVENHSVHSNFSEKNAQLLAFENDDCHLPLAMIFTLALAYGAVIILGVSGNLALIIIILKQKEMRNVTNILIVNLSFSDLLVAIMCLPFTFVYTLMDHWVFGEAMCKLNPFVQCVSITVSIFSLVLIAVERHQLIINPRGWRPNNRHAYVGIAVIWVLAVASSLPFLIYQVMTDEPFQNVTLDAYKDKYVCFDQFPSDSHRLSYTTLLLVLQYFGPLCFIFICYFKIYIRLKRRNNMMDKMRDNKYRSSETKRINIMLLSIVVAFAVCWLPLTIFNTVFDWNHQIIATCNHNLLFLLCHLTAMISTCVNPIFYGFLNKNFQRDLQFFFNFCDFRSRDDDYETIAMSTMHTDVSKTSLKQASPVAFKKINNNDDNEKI
Briefly: CaFlux Assay (FLIPR), Y1R.

In a further experiment the target is Y4R (Homo sapiens, UniProt P50391). Briefly: CaFlux Assay (FLIPR), Y4R.
Sequence of Y4R (P50391 whole entry): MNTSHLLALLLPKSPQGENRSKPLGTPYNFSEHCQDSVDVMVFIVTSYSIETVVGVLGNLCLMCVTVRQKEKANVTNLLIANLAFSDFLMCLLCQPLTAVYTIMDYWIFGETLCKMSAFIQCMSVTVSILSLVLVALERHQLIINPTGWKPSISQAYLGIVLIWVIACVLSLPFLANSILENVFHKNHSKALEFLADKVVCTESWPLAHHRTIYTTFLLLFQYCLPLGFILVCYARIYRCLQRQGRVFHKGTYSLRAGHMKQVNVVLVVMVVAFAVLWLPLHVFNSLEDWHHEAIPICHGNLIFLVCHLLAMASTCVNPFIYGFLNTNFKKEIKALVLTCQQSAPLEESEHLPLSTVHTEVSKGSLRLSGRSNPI
In another experiment the target is T2, Y5R (Homo sapiens, UniProt Q15761).
T2 sequence (Q15761 1-445): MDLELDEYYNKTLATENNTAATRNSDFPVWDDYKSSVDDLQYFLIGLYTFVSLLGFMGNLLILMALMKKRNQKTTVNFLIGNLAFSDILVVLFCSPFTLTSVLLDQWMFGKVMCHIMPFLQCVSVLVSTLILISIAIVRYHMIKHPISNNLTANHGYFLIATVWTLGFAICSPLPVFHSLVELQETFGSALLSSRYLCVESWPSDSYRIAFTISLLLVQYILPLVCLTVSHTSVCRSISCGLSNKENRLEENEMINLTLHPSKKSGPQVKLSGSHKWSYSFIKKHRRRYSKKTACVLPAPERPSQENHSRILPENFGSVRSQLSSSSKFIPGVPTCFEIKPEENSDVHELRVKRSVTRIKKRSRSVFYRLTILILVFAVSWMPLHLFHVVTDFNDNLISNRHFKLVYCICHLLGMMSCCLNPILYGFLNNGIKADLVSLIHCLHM
Put plainly: CaFlux Assay (FLIPR), Y5R.

In a further experiment the target is T3, hNPY2R (Homo sapiens, UniProt P49146).
T3 sequence (P49146 1-381): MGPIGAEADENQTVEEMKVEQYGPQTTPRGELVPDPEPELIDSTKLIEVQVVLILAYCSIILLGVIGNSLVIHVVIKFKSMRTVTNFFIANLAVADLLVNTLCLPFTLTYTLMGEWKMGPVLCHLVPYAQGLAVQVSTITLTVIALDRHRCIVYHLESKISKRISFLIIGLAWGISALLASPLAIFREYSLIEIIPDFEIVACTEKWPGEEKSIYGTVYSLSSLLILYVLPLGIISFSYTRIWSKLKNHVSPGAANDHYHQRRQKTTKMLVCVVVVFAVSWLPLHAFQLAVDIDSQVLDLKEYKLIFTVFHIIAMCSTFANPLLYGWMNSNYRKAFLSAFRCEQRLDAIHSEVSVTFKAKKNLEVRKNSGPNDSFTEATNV
Briefly: cAMP Agonist Assay, HEK293/hNPY2R. Details: expressed in transfected cells; host or cells: HEK293/hNPY2R (G418 selection). The gist of the method: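 Intracellular cAMP quantified by luminescent competitive ELISA after a 30 min room-temperature treatment of overnight-plated HEK293/hNPY2R cells with compound in medium containing 5 μM forskolin, 0.5 mM IBMX and 1.1% DMSO; four replicates per concentration.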

The mark [1] stands for this setting: FLIPR; read-out: Y1R EC50 (nM) FLIPR.
Setting [2] is: FLIPR; read-out: Y4R EC50 (nM) FLIPR.
The mark [3] stands for this setting: FLIPR; read-out: Y5R EC50 (nM) FLIPR.
[4] abbreviates: HEK293/hNPY2R cells, Forskolin 5 μM; read-out: Y2R EC50 (nM) cAMP.

Regarding `CC[C@H](C)[C@H](NC(C)=O)C(=O)N[C@@H](CCCCNC(=O)CCOCCOCCOCCOCCOCCOCCOCCOCCOCCOCCOCCOCCOCCOCCOCCOCCOCCOCCOCCOCCOCCOCCOCCOC)C(=O)N1CCN(c2ccc3ncn(CC(=O)N[C@@H](CCCNC(=N)N)C(=O)N[C@@H](Cc4c[nH]cn4)C(=O)N[C@@H](Cc4ccc(O)cc4)C(=O)N[C@@H](CC(C)C)C(=O)N[C@@H](CC(N)=O)C(=O)N[C@@H](Cc4c[nH]c5ccccc45)C(=O)N[C@H](C(=O)N[C@H](C(=O)N[C@@H](CCCNC(=N)N)C(=O)N[C@@H](CCC(N)=O)C(=O)N(C)[C@@H](CCCNC(=N)N)C(=O)N[C@@H](Cc4ccc(O)cc4)C(N)=O)[C@@H](C)O)C(C)C)c(=O)c3c2)CC1` [Example 21], the EC50 at Y1R (setting [1]) was more than 6000 nM; at Y4R (setting [2]), more than 6000 nM; on Y5R (setting [3]), more than 6000 nM; at hNPY2R (setting [4]) it was 1.29 nM.

In the case of `CCCCCCCCCCCCCCCCCCCC(=O)N[C@@H](CCS(=O)(=O)O)C(=O)N[C@@H](CCS(=O)(=O)O)C(=O)NCCCC[C@H](NC(=O)[C@@H](NC(=O)CCOCCOCCOCCOCCOCCOCCOCCOCCOCCOCCOCCOCCOCCOCCOCCOCCOCCOCCOCCOCCOCCOCCOCCOC)[C@@H](C)CC)C(=O)N1CCN(c2ccc3ncn(CC(=O)N[C@@H](CCCNC(=N)N)C(=O)NC(Cc4c[nH]cn4)C(=O)N[C@@H](Cc4ccc(O)cc4)C(=O)NC(CC(C)C)C(=O)N[C@@H](CC(N)=O)C(=O)NC(Cc4c[nH]c5ccccc45)C(=O)N[C@H](C(=O)N[C@H](C(=O)N[C@@H](CCCNC(=N)N)C(=O)NC(CCC(N)=O)C(=O)N(C)[C@@H](CCCNC(=N)N)C(=O)NC(Cc4ccc(O)cc4)C(N)=O)[C@@H](C)O)C(C)C)c(=O)c3c2)CC1` (stereo partly drawn) [Example 27], the EC50 is more than 6000 nM at Y1R (setting [1]), more than 6000 nM at Y4R (setting [2]), more than 6000 nM on Y5R (setting [3]) and 2.3 nM on hNPY2R (setting [4]).

As for `CCCCCCCCCCCCCCCCCCCC(=O)N[C@@H](CCS(=O)(=O)O)C(=O)N[C@@H](CCS(=O)(=O)O)C(=O)NCCCC[C@H](NC(=O)[C@@H](NC(=O)CCOCCOCCOCCOCCOCCOCCOCCOCCOCCOCCOCCOCCOCCOCCOCCOCCOCCOCCOCCOCCOCCOCCOCCOC)[C@@H](C)CC)C(=O)N1CCN(c2ccc3ncn(CC(=O)N[C@@H](CCCNC(N)=O)C(=O)NC(Cc4c[nH]cn4)C(=O)N[C@@H](Cc4ccc(O)cc4)C(=O)NC(CC(C)C)C(=O)N[C@@H](CC(N)=O)C(=O)NC(Cc4c[nH]c5ccccc45)C(=O)N[C@H](C(=O)N[C@H](C(=O)N[C@@H](CCCNC(=N)N)C(=O)NC(CCC(N)=O)C(=O)N(C)[C@@H](CCCNC(=N)N)C(=O)NC(Cc4ccc(O)cc4)C(N)=O)[C@@H](C)O)C(C)C)c(=O)c3c2)CC1` (stereo partly drawn) [Example 28], the EC50 is more than 6000 nM on Y1R (setting [1]), more than 6000 nM on Y4R (setting [2]), 1320 nM on Y5R (setting [3]) and 1.8 nM on hNPY2R (setting [4]).

For the compound `CCCCCCCCCCCCCCCC(=O)N[C@@H](CCS(=O)(=O)O)C(=O)N[C@@H](CCS(=O)(=O)O)C(=O)NCCCC[C@H](NC(=O)[C@@H](NC(=O)CCOCCOCCOCCOCCOCCOCCOCCOCCOCCOCCOCCOCCOCCOCCOCCOCCOCCOCCOCCOCCOCCOCCOCCOC)[C@@H](C)CC)C(=O)N1CCN(c2ccc3ncn(CC(=O)N[C@@H](CCCNC(=N)N)C(=O)NC(Cc4c[nH]cn4)C(=O)N[C@@H](Cc4ccc(O)cc4)C(=O)NC(CC(C)C)C(=O)N[C@@H](CC(N)=O)C(=O)NC(Cc4c[nH]c5ccccc45)C(=O)N[C@H](C(=O)N[C@H](C(=O)N[C@@H](CCCNC(=N)N)C(=O)NC(CCC(N)=O)C(=O)N(C)[C@@H](CCCNC(=N)N)C(=O)NC(Cc4ccc(O)cc4)C(N)=O)[C@@H](C)O)C(C)C)c(=O)c3c2)CC1` (stereo partly drawn) [Example 29], the EC50 on Y1R (setting [1]) is more than 6000 nM; on Y4R (setting [2]) it was more than 6000 nM; on Y5R (setting [3]) it was more than 6000 nM; on hNPY2R (setting [4]), 0.14 nM.

Regarding `CCCCCCCCCCCCCCCCCCCC(=O)NCCCCCC(=O)N[C@H](C(=O)N[C@@H](CCCCNC(=O)CCOCCOCCOCCOCCOCCOCCOCCOCCOCCOCCOCCOCCOCCOCCOCCOCCOCCOCCOCCOCCOCCOCCOCCOC)C(=O)N1CCN(c2ccc3ncn(CC(=O)N[C@@H](CCCNC(=N)N)C(=O)N[C@@H](Cc4c[nH]cn4)C(=O)N[C@@H](Cc4ccc(O)cc4)C(=O)N[C@@H](CC(C)C)C(=O)N[C@@H](CC(N)=O)C(=O)N[C@@H](Cc4c[nH]c5ccccc45)C(=O)N[C@H](C(=O)N[C@H](C(=O)N[C@@H](CCCNC(=N)N)C(=O)N[C@@H](CCC(N)=O)C(=O)N(C)[C@@H](CCCNC(=N)N)C(=O)N[C@@H](Cc4ccc(O)cc4)C(N)=O)[C@@H](C)O)C(C)C)c(=O)c3c2)CC1)[C@@H](C)CC` [Example 35], the EC50 was more than 6000 nM on Y1R (setting [1]), more than 6000 nM on Y4R (setting [2]), 1010 nM at Y5R (setting [3]) and 0.17 nM at hNPY2R (setting [4]).

For `CC[C@H](C)[C@H](NC(=O)[C@H](CCC(=O)O)NC(=O)[C@H](CCC(=O)O)NC(=O)CCCCCCCCCCCCCCC(=O)O)C(=O)N[C@@H](CCCCNC(=O)CCOCCOCCOCCOCCOCCOCCOCCOCCOCCOCCOCCOCCOCCOCCOCCOC)C(=O)N1CCN(c2ccc3ncn(CC(=O)N[C@@H](CCCNC(=N)N)C(=O)N[C@@H](Cc4c[nH]cn4)C(=O)N[C@@H](Cc4ccc(O)cc4)C(=O)N[C@@H](CC(C)C)C(=O)N[C@@H](CC(N)=O)C(=O)N[C@@H](Cc4c[nH]c5ccccc45)C(=O)N[C@H](C(=O)N[C@H](C(=O)N[C@@H](CCCNC(=N)N)C(=O)N[C@@H](CCC(N)=O)C(=O)N(C)[C@@H](CCCNC(=N)N)C(=O)N[C@@H](Cc4ccc(O)cc4)C(N)=O)[C@@H](C)O)C(C)C)c(=O)c3c2)CC1` [Example 54], the EC50 at Y1R (read-out: Y1R EC50 (nM) FLIPR; FLIPR) is more than 6000 nM; at Y4R (read-out: Y4R EC50 (nM) FLIPR; FLIPR), more than 6000 nM; on Y5R (read-out: Y5R EC50 (nM) FLIPR; FLIPR) it was more than 6000 nM; on hNPY2R (read-out: Y2R EC50 (nM) cAMP; HEK293/hNPY2R cells, Forskolin 5 μM), 36 nM.

The values above are taken from US20110172147A1, “NEUROPEPTIDE-2 RECEPTOR (Y-2R) AGONISTS” (priority 2009, published 2011).
